Results from US11648254B2 (Kumquat Biosciences Inc., priority 2021, dated 2023).
Like-named read-outs stand apart in the source and are kept apart here.

Tests used:
[1] = target: SOS1 (Homo sapiens (Human), UniProt Q07889); experiment: Ras-SOS interaction assay (HTRF); type: biochemical
[2] = system: MIA PaCa-2 cells (K-Ras G12C); experiment: Ras-SOS cellular growth inhibition assay (CellTiter-Glo, 3D); type: cell-based; details: Homo sapiens
How it was run: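 MIA PaCa-2 cells grown in ultra-low-attachment plates (3D) in DMEM/Ham's F12 with 10% FCS and 2.5% horse serum, treated the day after seeding with a 9-point 3-fold compound series for about 5 days. Viability by CellTiter-Glo luminescence; IC50 from four-parameter fit.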

[3] = system: NCI-H1975 cells (EGFR T790M L858R); experiment: EGFR-SOS cellular inhibition assay (CellTiter-Glo, 3D); type: cell-based; details: Homo sapiens
[4] = K-RasG13D utilized, read-out: IC50 inhibition of SOS
[5] = K-RasG13D, read-out: IC50 value against SOS1
[6] = MIA PaCa-2, 120 h, MIA PaCa-2, 3D proliferation, about 5 days, read-out: Bio-Cell-Prolif-3D (MiaPaca2 IC50)
[7] = MIA PaCa-2, MIA PaCa-2, read-out: IC50 in inhibiting MIA PaCa-2 cell growth
[8] = 120 h, NCI-H1975, 3D proliferation, about 5 days, read-out: Bio-Cell-Prolif-3D (H1975 IC50)
[9] = NCI-H1975, EGFR T790M L858R, read-out: IC50 in inhibiting growth of NCI-H1975 cell line

Chain of SOS1 (Q07889 564-1049): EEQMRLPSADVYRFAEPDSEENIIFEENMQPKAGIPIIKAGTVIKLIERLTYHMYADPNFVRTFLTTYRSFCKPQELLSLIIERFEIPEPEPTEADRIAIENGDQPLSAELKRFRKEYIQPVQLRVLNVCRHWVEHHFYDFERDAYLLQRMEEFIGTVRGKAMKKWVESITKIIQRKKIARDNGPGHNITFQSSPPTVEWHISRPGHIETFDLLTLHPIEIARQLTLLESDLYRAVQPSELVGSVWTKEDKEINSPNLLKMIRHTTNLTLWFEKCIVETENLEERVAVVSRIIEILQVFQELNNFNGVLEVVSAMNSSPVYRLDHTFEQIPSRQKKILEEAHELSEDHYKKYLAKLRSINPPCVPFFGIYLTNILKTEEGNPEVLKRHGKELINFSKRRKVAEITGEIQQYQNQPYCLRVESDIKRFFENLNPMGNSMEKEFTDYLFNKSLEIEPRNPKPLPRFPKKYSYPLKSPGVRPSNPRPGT

## Cc1nc(N[C@H](C)c2cccc(C(F)(F)CO)c2)c2cc(C3(C#N)CC3)c(Cl)nc2n1 [Compound 194, (R)-1-(7-chloro-4-((1-(3-(1,1-difluoro-2-hydroxyethyl)phenyl)ethyl)amino)-2-methylpyrido[2,3-d]pyrimidin-6-yl)cyclopropane-1-carbonitrile]
[1]; [4]
  IC50: < 100 nM
[1]; [5]
  IC50: < 50 nM
[2]; [6]
  IC50: ≤ 1000 nM
[2]; [7]
  IC50: < 500 nM
[3]; [8]
  IC50: ≤ 1000 nM

## CCN1CCN(c2cc3c(N[C@H](C)c4cccc(C(F)(F)F)c4F)ncnc3nc2OC)CC1 [Compound 196, (R)-6-(4-ethylpiperazin-1-yl)-N-(1-(2-fluoro-3-(trifluoromethyl)phenyl)ethyl)-7-methoxypyrido[2,3-d]pyrimidin-4-amine]
[1]; [4]
  IC50: < 100 nM
[1]; [5]
  IC50: < 50 nM
[2]; [6]
  IC50: ≤ 1000 nM
[2]; [7]
  IC50: < 500 nM
[3]; [8]
  IC50: ≤ 1000 nM
[3]; [9]
  IC50: < 500 nM

## COc1nc2ncnc(N[C@H](C)c3cccc(C(F)(F)F)c3F)c2cc1N1CCN(C)CC1 [Compound 197, (R)-N-(1-(2-fluoro-3-(trifluoromethyl)phenyl)ethyl)-7-methoxy-6-(4-methylpiperazin-1-yl)pyrido[2,3-d] pyrimidin-4-amine]
[1]; [4]
  IC50: < 100 nM
[1]; [5]
  IC50: < 50 nM
[2]; [6]
  IC50: ≤ 1000 nM
[2]; [7]
  IC50: < 500 nM
[3]; [8]
  IC50: ≤ 1000 nM
[3]; [9]
  IC50: < 500 nM

## CCN1CCN(c2cc3c(N[C@H](C)c4cccc(C(F)(F)F)c4C)ncnc3nc2OC)CC1 [Compound 198, (R)-6-(4-ethylpiperazin-1-yl)-7-methoxy-N-(1-(2-methyl-3-(trifluoromethyl)phenyl)ethyl)pyrido[2,3-d]pyrimidin-4-amine]
[1]; [4]
  IC50: < 100 nM
[1]; [5]
  IC50: < 50 nM
[2]; [6]
  IC50: ≤ 1000 nM
[2]; [7]
  IC50: < 500 nM
[3]; [8]
  IC50: ≤ 1000 nM
[3]; [9]
  IC50: < 500 nM

## CCN1CCC(c2cc3c(N[C@H](C)c4cccc(C(F)(F)F)c4F)ncnc3nc2OC)CC1 [Compound 199, (R)-6-(1-ethylpiperidin-4-yl)-N-(1-(2-fluoro-3-(trifluoromethyl)phenyl)ethyl)-7-methoxypyrido[2,3-d]pyrimidin-4-amine]
[1]; [4]
  IC50: < 100 nM
[1]; [5]
  IC50: < 50 nM
[2]; [6]
  IC50: ≤ 1000 nM
[2]; [7]
  IC50: < 500 nM
[3]; [8]
  IC50: ≤ 1000 nM
[3]; [9]
  IC50: < 500 nM

## COc1nc2nc(OCC3CN(C)C3)nc(N[C@H](C)c3cccc(C(F)F)c3F)c2cc1C1(C#N)CC1 [Compound 203, (R)-1-(4-((1-(3-(difluoromethyl)-2-fluorophenyl)ethyl)amino)-7-methoxy-2-((1-methylazetidin-3-yl)methoxy)pyrido[2,3-d]pyrimidin-6-yl)cyclopropane-1-carbonitrile]
[1]; [4]
  IC50: < 100 nM
[1]; [5]
  IC50: < 50 nM
[2]; [6]
  IC50: 1000 to 10000 nM
[3]; [8]
  IC50: ≤ 1000 nM

## COc1nc2ncnc(N[C@H](C)c3cccc(C(F)(F)CO)c3F)c2cc1N1CCN(C(C)C)CC1 [Compound 204, (R)-2,2-difluoro-2-(2-fluoro-3-(1-((6-(4-isopropylpiperazin-1-yl)-7-methoxypyrido[2,3-d]pyrimidin-4-yl)amino)ethyl)phenyl)ethan-1-ol]
[1]; [4]
  IC50: < 100 nM
[1]; [5]
  IC50: < 50 nM
[2]; [6]
  IC50: ≤ 1000 nM
[2]; [7]
  IC50: < 500 nM
[3]; [8]
  IC50: ≤ 1000 nM
[3]; [9]
  IC50: < 500 nM

## COc1nc2ncnc(N[C@H](C)c3cccc(C(F)(F)CO)c3)c2cc1N1CCN(C(C)C)CC1 [Compound 205, (R)-2,2-difluoro-2-(3-(1-((6-(4-isopropylpiperazin-1-yl)-7-methoxypyrido[2,3-d]pyrimidin-4-yl)amino)ethyl)phenyl)ethan-1-ol]
[1]; [4]
  IC50: < 100 nM
[1]; [5]
  IC50: < 50 nM
[2]; [6]
  IC50: ≤ 1000 nM
[2]; [7]
  IC50: < 500 nM
[3]; [8]
  IC50: ≤ 1000 nM
[3]; [9]
  IC50: < 500 nM

## COc1nc2nc(C)nc(N[C@H](C)c3cccc(C(F)(F)CO)c3F)c2cc1C1(C#N)CC1 [Compound 206, (R)-1-(4-((1-(3-(1,1-difluoro-2-hydroxyethyl)-2-fluorophenyl)ethyl)amino)-7-methoxy-2-methylpyrido[2,3-d]pyrimidin-6-yl)cyclopropane-1-carbonitrile]
[1]; [4]
  IC50: < 100 nM
[1]; [5]
  IC50: < 50 nM
[2]; [6]
  IC50: ≤ 1000 nM
[2]; [7]
  IC50: < 500 nM
[3]; [8]
  IC50: ≤ 1000 nM
[3]; [9]
  IC50: < 500 nM

## COc1nc2nc(C)nc(N[C@H](C)c3cccc(C(F)(F)C4(O)CC4)c3F)c2cc1N1CCN(C(C)C)CC1 [Compound 209, (R)-1-(difluoro(2-fluoro-3-(1-((6-(4-isopropylpiperazin-1-yl)-7-methoxy-2-methylpyrido[2,3-d]pyrimidin-4-yl)amino)ethyl)phenyl)methyl)cyclopropan-1-ol]
[1]; [4]
  IC50: < 100 nM
[1]; [5]
  IC50: < 50 nM
[2]; [6]
  IC50: ≤ 1000 nM
[2]; [7]
  IC50: < 500 nM
[3]; [8]
  IC50: ≤ 1000 nM
[3]; [9]
  IC50: < 500 nM

## COc1nc2nc(C)nc(N[C@H](C)c3cccc(C(F)(F)C4CCN(C)CC4)c3F)c2cc1C1(C#N)CC1 [Compound 210, (R)-1-(4-((1-(3-(difluoro(1-methylpiperidin-4-yl)methyl)-2-fluorophenyl)ethyl)amino)-7-methoxy-2-methylpyrido[2,3-d]pyrimidin-6-yl)cyclopropane-1-carbonitrile]
[1]; [4]
  IC50: < 100 nM
[1]; [5]
  IC50: < 50 nM
[2]; [6]
  IC50: ≤ 1000 nM
[2]; [7]
  IC50: < 500 nM
[3]; [8]
  IC50: ≤ 1000 nM
[3]; [9]
  IC50: < 500 nM

## COc1nc2nc(C)nc(N[C@H](C)c3cccc(C(F)(F)C(C)(C)O)c3)c2cc1C1CCN(C(C)C)CC1 [Compound 212, (R)-1,1-difluoro-1-(3-(1-((6-(1-isopropylpiperidin-4-yl)-7-methoxy-2-methylpyrido[2,3-d]pyrimidin-4-yl)amino)ethyl)phenyl)-2-methylpropan-2-ol]
[1]; [4]
  IC50: < 100 nM
[1]; [5]
  IC50: < 50 nM
[2]; [6]
  IC50: ≤ 1000 nM
[2]; [7]
  IC50: < 500 nM
[3]; [8]
  IC50: ≤ 1000 nM
[3]; [9]
  IC50: < 500 nM

## COc1nc2nc(C)nc(N[C@H](C)c3cccc(C(F)(F)F)c3C)c2cc1C1(C#N)CC1 [Compound 213, (R)-1-(7-methoxy-2-methyl-4-((1-(2-methyl-3-(trifluoromethyl)phenyl)ethyl)amino)pyrido[2,3-d]pyrimidin-6-yl)cyclopropane-1-carbonitrile]
[1]; [4]
  IC50: < 100 nM
[2]; [6]
  IC50: ≤ 1000 nM
[3]; [8]
  IC50: ≤ 1000 nM

## COc1nc2nc(C)nc(N[C@H](C)c3cccc(C(C)(F)F)c3F)c2cc1N1CCS(=O)(=O)CC1 [Compound 215, (R)-4-(4-((1-(3-(1,1-difluoroethyl)-2-fluorophenyl)ethyl)amino)-7-methoxy-2-methylpyrido[2,3-d]pyrimidin-6-yl)thiomorpholine 1,1-dioxide]
[1]; [4]
  IC50: < 100 nM
[1]; [5]
  IC50: < 50 nM
[2]; [6]
  IC50: ≤ 1000 nM
[2]; [7]
  IC50: < 500 nM
[3]; [8]
  IC50: ≤ 1000 nM
[3]; [9]
  IC50: < 500 nM

## COc1nc2nc(CCN3CCC3)nc(N[C@H](C)c3cccc(C(F)(F)F)c3F)c2cc1C1(C#N)CC1 [Compound 217, (R)-1-(2-(2-(azetidin-1-yl)ethyl)-4-((1-(2-fluoro-3-(trifluoromethyl)phenyl)ethyl)amino)-7-methoxypyrido[2,3-d]pyrimidin-6-yl)cyclopropane-1-carbonitrile]
[1]; [5]
  IC50: < 50 nM
[2]; [6]
  IC50: ≤ 1000 nM
[3]; [8]
  IC50: ≤ 1000 nM
[3]; [9]
  IC50: < 500 nM

## CC(C)N1CCC(c2cc3c(N[C@H](C)c4cccc(C(F)(F)C5CCN(C(C)C)CC5)c4F)ncnc3nc2Cl)CC1 [Compound 218, (R)-7-chloro-N-(1-(3-(difluoro(1-isopropylpiperidin-4-yl)methyl)-2-fluorophenyl)ethyl)-6-(1-isopropylpiperidin-4-yl)pyrido[2,3-d]pyrimidin-4-amine]
[1]; [4]
  IC50: < 100 nM
[1]; [5]
  IC50: < 50 nM
[2]; [6]
  IC50: ≤ 1000 nM
[2]; [7]
  IC50: < 500 nM
[3]; [8]
  IC50: ≤ 1000 nM
[3]; [9]
  IC50: < 500 nM

## COc1nc2ncnc(N[C@H](C)c3cccc(C(F)(F)C4CCN(C(C)C)CC4)c3F)c2cc1C1CCN(C(C)C)CC1 [Compound 221, (R)-N-(1-(3-(difluoro(1-isopropylpiperidin-4-yl)methyl)-2-fluorophenyl)ethyl)-6-(1-isopropylpiperidin-4-yl)-7-methoxypyrido[2,3-d] pyrimidin-4-amine]
[1]; [4]
  IC50: < 100 nM
[1]; [5]
  IC50: < 50 nM
[2]; [6]
  IC50: ≤ 1000 nM
[2]; [7]
  IC50: < 500 nM
[3]; [8]
  IC50: ≤ 1000 nM
[3]; [9]
  IC50: < 500 nM

## Cc1nc(N[C@H](C)c2cccc(C(F)(F)C3CCN(C(C)C)CC3)c2F)c2cc(C3CCN(C(C)C)CC3)c(Cl)nc2n1 [Compound 222, (R)-7-chloro-N-(1-(3-(difluoro(1-isopropylpiperidin-4-yl)methyl)-2-fluorophenyl)ethyl)-6-(1-isopropylpiperidin-4-yl)-2-methylpyrido[2,3-d]pyrimidin-4-amine]
[1]; [4]
  IC50: < 100 nM
[1]; [5]
  IC50: < 50 nM
[2]; [6]
  IC50: ≤ 1000 nM
[2]; [7]
  IC50: < 500 nM
[3]; [8]
  IC50: ≤ 1000 nM
[3]; [9]
  IC50: < 500 nM

## Cc1nc(N[C@H](C)c2cccc(C(F)(F)C3CCN(C(C)C)CC3)c2F)c2cc(N3CCN(C(C)C)CC3)c(Cl)nc2n1 [Compound 223, (R)-7-chloro-N-(1-(3-(difluoro(1-isopropylpiperidin-4-yl)methyl)-2-fluorophenyl)ethyl)-6-(4-isopropylpiperazin-1-yl)-2-methylpyrido[2,3-d]pyrimidin-4-amine]
[1]; [4]
  IC50: < 100 nM
[1]; [5]
  IC50: < 50 nM
[2]; [6]
  IC50: ≤ 1000 nM
[2]; [7]
  IC50: < 500 nM
[3]; [8]
  IC50: ≤ 1000 nM
[3]; [9]
  IC50: < 500 nM
